According to patent US20250171437A1 (Agios Pharmaceuticals,Inc., priority 2022, published 2025):

Target: T1, human PAH with the R408W mutation (A375 R408W cells) (Homo sapiens, UniProt P00439, R408W)
T1 construct: expressed in transfected cells
T1 sequence (P00439 1-452 R408W): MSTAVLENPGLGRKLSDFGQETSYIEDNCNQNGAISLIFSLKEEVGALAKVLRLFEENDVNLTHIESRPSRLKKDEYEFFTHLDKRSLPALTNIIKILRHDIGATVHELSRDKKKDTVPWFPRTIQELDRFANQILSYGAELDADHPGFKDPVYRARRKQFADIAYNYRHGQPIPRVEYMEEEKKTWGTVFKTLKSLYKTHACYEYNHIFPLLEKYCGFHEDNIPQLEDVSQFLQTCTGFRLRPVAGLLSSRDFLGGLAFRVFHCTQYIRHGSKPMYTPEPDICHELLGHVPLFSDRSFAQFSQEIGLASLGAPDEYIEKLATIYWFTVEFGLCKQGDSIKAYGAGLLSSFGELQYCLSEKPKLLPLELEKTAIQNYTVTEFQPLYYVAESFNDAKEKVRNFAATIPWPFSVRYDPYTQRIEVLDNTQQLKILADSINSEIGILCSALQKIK
Assay: Cell Based Phenylalanine Flux Assay
Settings: 24 hrs with compound, then 20 μM sepiapterin and 800 μM 13C9,15N-Phenylalanine for 4 hours, 13C-Tyrosine by LC-MS, average where tested multiple times
In short: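 AC50 is derived from LC-MS of 13C-tyrosine in the media after a 4 h pulse of 800 μM 13C9,15N-phenylalanine plus 20 μM sepiapterin. The A375 R408W PAH cells had received duplicate 10-point, 2-fold compound dilutions (0.5% DMSO) for 24 h beforehand.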

[1] = A375 cells expressing R408W PAH

Row | Structure (SMILES) | AC50 (A375 R408W cells) [µM] | AC50 [1] [µM]
1 | Cc1ccc2oc([C@H]3c4nc[nH]c4CCN3C(=O)c3nnc(-c4cnn(C)c4)o3)nc2c1 [Example 112, (R)-(5-(1-methyl-1H-pyrazol-4-yl)-1,3,4-oxadiazol-2-yl)(4-(5-methylbenzo[d]oxazol-2-yl)-6,7-dihydro-1H-imidazo[4,5-c]pyridin-5(4H)-yl)methanone] | 1 to 5 | –
2 | Cn1cncc1-c1nc(C(F)F)c(C(=O)N2CCc3[nH]cnc3[C@@H]2c2nc3cc(F)ccc3o2)o1 [Example 688, (R)-(4-(difluoromethyl)-2-(1-methyl-1H-imidazol-5-yl)oxazol-5-yl)(4-(5-fluorobenzo[d]oxazol-2-yl)-6,7-dihydro-1H-imidazo[4,5-c]pyridin-5(4H)-yl)methanone] | 1 to 5 | –
3 | CC(C)(O)c1nc(C(F)F)c(C(=O)N2Cc3[nH]cnc3[C@H]2c2nc3ccccc3o2)o1 [Example 947, (S)-(4-(benzo[d]oxazol-2-yl)-4,6-dihydropyrrolo[3,4-d]imidazol-5(1H)-yl)(4-(difluoromethyl)-2-(2-hydroxypropan-2-yl)oxazol-5-yl)methanone] | ≥ 5 | –
4 | CC(C)(O)c1nc(C(F)F)c(CN2CCc3[nH]cnc3C2c2nc3cc(F)ccc3o2)o1 (stereo not drawn) | – | ≥ 5
5 | O=C(c1ocnc1C(F)F)N1CCc2[nH]cnc2[C@H]1c1nc2c(Br)cccc2o1 [Example 433, (S)-(4-(4-bromobenzo[d]oxazol-2-yl)-6,7-dihydro-1H-imidazo[4,5-c]pyridin-5(4H)-yl)(4-(difluoromethyl)oxazol-5-yl)methanone] | ≤ 0.5 | –
6 | COc1cccc2oc([C@H]3c4nc[nH]c4CCN3C(=O)c3nnc(-c4ccccn4)o3)nc12 [Example 623, (R)-(4-(4-methoxybenzo[d]oxazol-2-yl)-6,7-dihydro-1H-imidazo[4,5-c]pyridin-5(4H)-yl)(5-(pyridin-2-yl)-1,3,4-oxadiazol-2-yl)methanone] | 1 to 5 | –
7 | Cc1cccc2oc([C@H]3c4nc[nH]c4CCN3C(=O)c3nnc(-c4ccccn4)o3)nc12 [Example 481, (R)-(4-(4-methylbenzo[d]oxazol-2-yl)-6,7-dihydro-1H-imidazo[4,5-c]pyridin-5(4H)-yl)(5-(pyridin-2-yl)-1,3,4-oxadiazol-2-yl)methanone] | 0.5 to 1 | –
8 | Cn1cc(-c2nnc(C(=O)N3CCc4[nH]cnc4[C@@H]3c3nc4c(F)cc(F)cc4o3)o2)cn1 [Example 521, (R)-(4-(4,6-difluorobenzo[d]oxazol-2-yl)-6,7-dihydro-1H-imidazo[4,5-c]pyridin-5(4H)-yl)(5-(1-methyl-1H-pyrazol-4-yl)-1,3,4-oxadiazol-2-yl)methanone] | 1 to 5 | –
9 | Cc1ccc2nc(C3c4nc[nH]c4CCN3C(=O)c3cnco3)oc2c1 (stereo not drawn) | – | 1 to 5
10 | Cc1ccc2oc([C@@H]3c4nc[nH]c4CCN3C(=O)c3oc(-c4cncn4C)nc3C(F)F)nc2c1 [Example 758, (S)-(4-(difluoromethyl)-2-(1-methyl-1H-imidazol-5-yl)oxazol-5-yl)(4-(5-methylbenzo[d]oxazol-2-yl)-6,7-dihydro-1H-imidazo[4,5-c]pyridin-5(4H)-yl)methanone] | ≤ 0.5 | –
11 | Cn1cc(-c2nc(C(F)F)c(C(=O)N3CCc4[nH]cnc4[C@@H]3c3nc4ccccc4o3)o2)cn1 [Example 759, (R)-(4-(benzo[d]oxazol-2-yl)-6,7-dihydro-1H-imidazo[4,5-c]pyridin-5(4H)-yl)(4-(difluoromethyl)-2-(1-methyl-1H-pyrazol-4-yl)oxazol-5-yl)methanone] | 1 to 5 | –
12 | Cc1ccc2nc([C@H]3c4nc[nH]c4CCN3C(=O)c3nnc(-c4ncccc4F)o3)oc2c1 [Example 680, (R)-(5-(3-fluoropyridin-2-yl)-1,3,4-oxadiazol-2-yl)(4-(6-methylbenzo[d]oxazol-2-yl)-6,7-dihydro-1H-imidazo[4,5-c]pyridin-5(4H)-yl)methanone] | 1 to 5 | –
13 | Cc1ccc2oc([C@@H]3c4nc[nH]c4CCN3C(=O)c3ncc(Cl)s3)nc2c1 [Example 1, (S)-(5-chlorothiazol-2-yl)(4-(5-methylbenzo[d]oxazol-2-yl)-6,7-dihydro-1H-imidazo[4,5-c]pyridin-5(4H)-yl)methanone] | 0.5 to 1 | –
14 | Cn1ncnc1C(=O)N1CCc2[nH]cnc2C1c1nc2ccc(F)cc2o1 (stereo not drawn) | – | ≥ 5
15 | O=C(c1cnco1)N1CCc2[nH]cnc2C1c1nc2c(F)cccc2o1 (stereo not drawn) | – | 1 to 5
16 | O=C(CCc1nccs1)N1CCc2[nH]cnc2C1c1nc2ccc(F)cc2o1 (stereo not drawn) | – | 1 to 5
17 | O=C(c1ocnc1C(F)F)N1CCc2[nH]cnc2[C@@H]1c1nc2cccc(F)c2o1 [Example 174, (R)-(4-(difluoromethyl)oxazol-5-yl)(4-(7-fluorobenzo[d]oxazol-2-yl)-6,7-dihydro-1H-imidazo[4,5-c]pyridin-5(4H)-yl)methanone] | ≤ 0.5 | –
18 | O=C(c1ocnc1C(F)F)N1CCc2[nH]cnc2[C@H]1c1nc2cc(Cl)ccc2o1 [Example 378, (S)-(4-(5-chlorobenzo[d]oxazol-2-yl)-6,7-dihydro-1H-imidazo[4,5-c]pyridin-5(4H)-yl)(4-(difluoromethyl)oxazol-5-yl)methanone] | ≤ 0.5 | –
19 | Cn1cnc(-c2nc(C(F)F)c(C(=O)N3CCc4[nH]cnc4[C@@H]3c3nc4cc(F)ccc4o3)o2)c1 [Example 642, (R)-(4-(difluoromethyl)-2-(1-methyl-1H-imidazol-4-yl)oxazol-5-yl)(4-(5-fluorobenzo[d]oxazol-2-yl)-6,7-dihydro-1H-imidazo[4,5-c]pyridin-5(4H)-yl)methanone] | 1 to 5 | –
20 | COc1ccc(-c2nnc(C(=O)N3CCc4[nH]cnc4[C@H]3c3nc4cc(C)ccc4o3)o2)nc1 [Example 677, (S)-(5-(5-methoxypyridin-2-yl)-1,3,4-oxadiazol-2-yl)(4-(5-methylbenzo[d]oxazol-2-yl)-6,7-dihydro-1H-imidazo[4,5-c]pyridin-5(4H)-yl)methanone] | ≤ 0.5 | –
21 | O=C(c1ncc(Cl)s1)N1CCc2[nH]cnc2C1c1nc2cc(F)ccc2o1 (stereo not drawn) | – | 1 to 5
22 | Cc1cccc2nc([C@@H]3c4nc[nH]c4CCN3C(=O)c3ocnc3C(F)F)oc12 [Example 393, (S)-(4-(difluoromethyl)oxazol-5-yl)(4-(7-methylbenzo[d]oxazol-2-yl)-6,7-dihydro-1H-imidazo[4,5-c]pyridin-5(4H)-yl)methanone] | ≤ 0.5 | –
23 | O=C(C1CC1)N1CCc2[nH]cnc2C1c1nc2cc(F)ccc2o1 (stereo not drawn) | – | 1 to 5
24 | O=C(c1nnc(-c2ccn(C(F)F)n2)o1)N1CCc2[nH]cnc2[C@@H]1c1nc2c(F)ccc(F)c2o1 [Example 815, (R)-(4-(4,7-difluorobenzo[d]oxazol-2-yl)-6,7-dihydro-1H-imidazo[4,5-c]pyridin-5(4H)-yl)(5-(1-(difluoromethyl)-1H-pyrazol-3-yl)-1,3,4-oxadiazol-2-yl)methanone] | 0.5 to 1 | –
25 | Cn1ccc(-c2nnc(C(=O)N3CCc4[nH]cnc4[C@@H]3c3nc4cccc(F)c4o3)o2)n1 [Example 338, (R)-(4-(7-fluorobenzo[d]oxazol-2-yl)-6,7-dihydro-1H-imidazo[4,5-c]pyridin-5(4H)-yl)(5-(1-methyl-1H-pyrazol-3-yl)-1,3,4-oxadiazol-2-yl)methanone] | 0.5 to 1 | –
26 | Cn1ccc(C(=O)N2CCc3[nH]cnc3C2c2nc3cc(F)ccc3o2)n1 (stereo not drawn) | – | ≥ 5
27 | COc1ccc2oc([C@H]3c4nc[nH]c4CCN3C(=O)c3nc(C(F)F)nn3C)nc2c1 [Example 550, (R)-(3-(difluoromethyl)-1-methyl-1H-1,2,4-triazol-5-yl)(4-(5-methoxybenzo[d]oxazol-2-yl)-6,7-dihydro-1H-imidazo[4,5-c]pyridin-5(4H)-yl)methanone] | 1 to 5 | –
